Where a name gives a salt, the structure may show the parent alone.
Molecular target: T1, recombinant full-length WRN protein (1-1432) (Homo sapiens, UniProt Q14191)
T1 construct: recombinant full-length WRN protein (1-1432)
Assay: WRN unwinding activity, fluorogenic 384-well assay (Example A)
Format: biochemical
Conditions: 4 hr UNW pIC50, WRN unwinding activity, Table 2
Experimental: Functional WRN unwinding activity can be measured using a fluorogenic plate based 384 well assay configured to measure the separation of labeled double stranded DNA substrate. Compounds were dosed out in neat DMSO with a 1:3 serial dilution scheme. 100 nL of compound was stamped into Greiner low volume black assay plates (Greiner Cat #784076) using the Echo Acoustic Dispenser to generate assay ready plates. All solutions were prepared in assay buffer (25 mM TRIS (pH8.0), 5 mM NaCl, 2 mM MgCl2, 1 mM DTT, 0.05% BSA) for this 10 μL low volume reaction. To prepare the solutions, a 2×WRN Enzyme cocktail was made containing 200 pM of recombinant full-length WRN protein (1-1432). A 2× Substrate cocktail was made to consist of both 200 μM ATP (any ultrapure ATP sample) and 12 nM of the fluorescent quenched labeled double stranded DNA oligomer (IDT Custom synthesis; 5′-5IABkFQ (SEQ ID NO. 1)/GCACTGGCCGTCGTTTTACGGTCGTGACT-3′ (SEQ ID NO. 2): 5′-TTTTTTACTTAACGACGGCCAGTGC (SEQ ID NO. 3)/36-TAMTSP/-3′ (SEQ ID NO. 4)). To start the reaction, 5 μL of assay buffer was added to a single column to serve as the low control. Following this, 5 μL of 2×WRN Enzyme was added in all wells except the buffer low control wells. The reaction plate was covered and incubated at ambient temperature for 4 hours to allow for time dependent inhibition if it existed. After 4 hours, the addition of 5 μL of 2×-ATP/DNA substrate cocktail was added across all wells of the assay plate. This initiated the reaction, as the plate was incubated at ambient temperature for 60 minutes for the unwinding reaction to occur. A 10 mM EDTA solution was prepared and added at 5 μL across the entire plate after 60 minutes to quench the samples for an endpoint measurement. Fluorescent intensity was measured using excitation and emission wavelengths of 525 nm and 598 nm, respectively. High florescent intensity (DMSO with buffer) represents full inhibition of unwinding activity and low florescent intensity (DMSO with enzyme) represents no inhibition of unwinding activity. The potency of the compounds was determined using a four-parameter inhibition model to generate pIC50, Hill Slope, maximum inhibition (see Table 2).

T1 sequence (Q14191 whole entry): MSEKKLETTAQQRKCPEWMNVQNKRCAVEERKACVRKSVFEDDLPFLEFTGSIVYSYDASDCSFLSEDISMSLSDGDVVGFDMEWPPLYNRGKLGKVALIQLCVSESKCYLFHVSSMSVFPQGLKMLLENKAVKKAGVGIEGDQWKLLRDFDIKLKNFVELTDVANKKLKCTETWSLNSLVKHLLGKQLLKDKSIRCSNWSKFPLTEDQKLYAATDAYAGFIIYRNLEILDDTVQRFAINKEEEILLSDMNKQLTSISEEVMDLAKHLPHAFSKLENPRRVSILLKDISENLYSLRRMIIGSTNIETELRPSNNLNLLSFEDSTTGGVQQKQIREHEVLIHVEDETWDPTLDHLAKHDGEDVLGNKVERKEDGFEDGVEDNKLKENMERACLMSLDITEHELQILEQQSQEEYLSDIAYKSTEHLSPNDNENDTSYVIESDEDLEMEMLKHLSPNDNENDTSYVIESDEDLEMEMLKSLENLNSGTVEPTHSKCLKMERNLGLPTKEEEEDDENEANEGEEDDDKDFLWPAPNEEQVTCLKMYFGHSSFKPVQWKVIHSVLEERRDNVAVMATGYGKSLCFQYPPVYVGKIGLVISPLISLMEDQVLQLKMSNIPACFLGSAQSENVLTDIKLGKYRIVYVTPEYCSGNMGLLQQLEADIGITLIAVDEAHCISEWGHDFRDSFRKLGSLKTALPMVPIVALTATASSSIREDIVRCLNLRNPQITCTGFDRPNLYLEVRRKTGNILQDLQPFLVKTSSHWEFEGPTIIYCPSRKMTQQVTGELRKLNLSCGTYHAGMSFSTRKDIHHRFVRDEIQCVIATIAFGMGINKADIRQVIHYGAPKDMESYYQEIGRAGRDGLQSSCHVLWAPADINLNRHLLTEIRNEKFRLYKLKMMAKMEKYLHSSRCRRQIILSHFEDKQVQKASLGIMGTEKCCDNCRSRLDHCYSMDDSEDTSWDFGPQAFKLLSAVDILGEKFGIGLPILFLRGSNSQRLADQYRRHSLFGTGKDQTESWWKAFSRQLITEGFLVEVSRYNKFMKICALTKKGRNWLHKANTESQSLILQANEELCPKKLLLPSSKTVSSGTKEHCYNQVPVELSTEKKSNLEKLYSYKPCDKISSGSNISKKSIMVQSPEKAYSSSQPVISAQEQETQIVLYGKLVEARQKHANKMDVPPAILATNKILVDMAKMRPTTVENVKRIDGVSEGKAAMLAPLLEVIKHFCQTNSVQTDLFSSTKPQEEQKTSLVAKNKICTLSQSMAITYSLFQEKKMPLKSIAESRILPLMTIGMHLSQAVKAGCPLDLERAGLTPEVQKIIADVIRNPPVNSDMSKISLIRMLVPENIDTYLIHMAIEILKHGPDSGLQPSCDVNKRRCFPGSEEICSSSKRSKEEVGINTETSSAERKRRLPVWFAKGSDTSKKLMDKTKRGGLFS

SMILES | IC50
CN(c1ccc([C@H]2CCC[C@@H](COc3ccc(C(F)(F)F)cc3)[C@@H]2C(=O)O)cc1)S(=O)(=O)c1cccc([C@H]2CCCNC2)c1 (relative stereo) [Example 213, (1R,2S,6R)-2-(4-((N-methyl-3-((R*)-piperidin-3-yl)phenyl)sulfonamido)phenyl)-6-((4-(trifluoromethyl)phenoxy)methyl)cyclohexane-1-carboxylic acid, formic acid salt] | 39.8 nM

Same assay, conditions: WRN unwinding activity, 4 hr; Table 2; read-out: 4 hr UNW pIC50 (converted)

SMILES | IC50
O=C(O)[C@@H]1[C@@H](c2ccc(-c3cnsc3CO)cc2)CCC[C@H]1C(=O)Nc1ccc(C(F)(F)F)cc1F [Example 51, (1R,2R,6S)-2-((2-fluoro-4-(trifluoromethyl)phenyl)carbamoyl)-6-(4-(5-(hydroxymethyl)isothiazol-4-yl)phenyl) cyclohexane-1-carboxylic acid] | 10 nM
O=C(O)[C@@H]1[C@@H](c2ccc(-c3ccccc3CN3CCOCC3)cc2)CCC[C@H]1C(=O)Nc1ccc(C(F)(F)F)cc1F [Example 4, (1R,2R,6S)-2-((2-fluoro-4-(trifluoromethyl)phenyl)carbamoyl)-6-(2′-(morpholinomethyl)-[1,1′-biphenyl]-4-yl)cyclohexane-1-carboxylic acid] | 1000 nM
Cc1nc2cc(S(=O)(=O)N(C)c3ccc([C@H]4CCC[C@@H](C(=O)N[C@H]5CC[C@H](C(C)(C)O)CC5)[C@@H]4C(=O)O)cc3)ccc2n1C [Example 183, (1R,2R,6S)-2-(((1r,4R)-4-(2-hydroxypropan-2-yl)cyclohexyl)carbamoyl)-6-(4-((N,1,2-trimethyl-1H-benzo[d]imidazole)-5-sulfonamido)phenyl)cyclohexane-1-carboxylic acid] | 6.31 nM
O=C(O)[C@@H]1[C@@H](c2ccc(-c3nncc4ccoc34)cc2)CCC[C@H]1C(=O)Nc1ccc(C(F)(F)F)cc1F [Example 45, (1R,2R,6S)-2-((2-fluoro-4-(trifluoromethyl)phenyl)carbamoyl)-6-(4-(furo[2,3-d]pyridazin-7-yl)phenyl)cyclohexane-1-carboxylic acid] | 126 nM
Cc1nc2cc(S(=O)(=O)N(C)c3ccc([C@H]4CCC[C@@H](C(=O)Nc5ccc(C(C)C)cc5)[C@H]4C(=O)O)cc3)ccc2n1C (single isomer, unassigned) [Example 76] | 1260 nM
Cc1nc2cc(S(=O)(=O)N(C)c3ccc([C@@H]4C[C@H](OC5CCC5)C[C@H](C(=O)Nc5ccc(C(F)(F)F)cc5F)[C@H]4C(=O)O)cc3)ccc2n1C (stereo in doubt) [Example 326, rel-(1R,2R,4R,6S)-4-cyclobutoxy-2-((2-fluoro-4-(trifluoromethyl)phenyl)carbamoyl)-6-(4-((N,1,2-trimethyl-1H-benzo[d]imidazole)-5-sulfonamido)phenyl)cyclohexane-1-carboxylic acid] | 631 nM
Cc1nc2cc(S(=O)(=O)N(C)c3ccc([C@@H]4C[C@H](Oc5ccccc5)C[C@H](C(=O)Nc5ccc(C(F)(F)F)cc5F)[C@H]4C(=O)O)cc3)ccc2n1C (single isomer, unassigned) [Example 153] | 3160 nM
N#Cc1cnnc(-c2ccc(C3CCCC(C(=O)Nc4ccc(C(F)(F)F)cc4F)[C@@H]3C(=O)O)cc2)c1 (stereo in doubt) [Example 39, (1R,2R,6S)-2-(4-(5-cyanopyridazin-3-yl)phenyl)-6-((2-fluoro-4-(trifluoromethyl)phenyl)carbamoyl)cyclohe xane-1-carboxylic acid] | 2000 nM
Cc1nsc(-c2ccc([C@H]3CCC[C@@H](C(=O)Nc4ccc(C(F)(F)F)cc4F)[C@@H]3C(=O)O)cc2)c1O [Example 28, (1R,2R,6S)-2-((2-fluoro-4-(trifluoromethyl)phenyl)carbamoyl)-6-(4-(4-hydroxy-3-methylisothiazol-5-yl)phenyl)cyclohexane-1-carboxylic acid] | 31.6 nM
Cc1cc(N(C)S(=O)(=O)c2ccc3c(c2)nc(C)n3C)ccc1[C@@H]1CCC[C@H](C(=O)Nc2ccc(C(F)(F)F)cc2F)[C@H]1C(=O)O (stereo in doubt) [Example 385, rel-(1R,2R,6S)-2-((2-fluoro-4-(trifluoromethyl)phenyl)carbamoyl)-6-(2-methyl-4-((N,1,2-trimethyl-1H-benzo[d]imidazole)-5-sulfonamido)phenyl)cyclohexane-1-carboxylic acid] | 1260 nM
CCC[C@H]1CC[C@@H](NC(=O)[C@@H]2CCC[C@H](c3ccc(N(C)S(=O)(=O)c4ccc5c(c4)nc(C)n5C)cc3)[C@H]2C(=O)O)CC1 [Example 195, (1R,2R,6S)-2-(((1r,4R)-4-propylcyclohexyl)carbamoyl)-6-(4-((N,1,2-trimethyl-1H-benzo[d]imidazole)-5-sulfonamido)phenyl)cyclohexane-1-carboxylic acid] | 20 nM
O=C(O)[C@@H]1[C@@H](c2ccc(-c3ccnc4ccsc34)cc2)CCC[C@H]1C(=O)Nc1ccc(C(F)(F)F)cc1F [Example 44, (1R,2R,6S)-2-((2-fluoro-4-(trifluoromethyl)phenyl)carbamoyl)-6-(4-(thieno[3,2-b]pyridin-7-yl)phenyl)cyclohexane-1-carboxylic acid] | 6310 nM
CN(c1ccc([C@H]2CCC[C@@H](C(=O)Nc3ccc(C(F)(F)F)cc3F)[C@@H]2C(=O)O)cc1)S(=O)(=O)c1ccc(C=O)c(O)c1 [Example 276, (1R,2R,6S)-2-((2-fluoro-4-(trifluoromethyl)phenyl)carbamoyl)-6-(4-((4-formyl-3-hydroxy-N-methylphenyl)sulfonamido)phenyl)cyclohexane-1-carboxylic acid] | 6.31 nM
O=C(O)[C@@H]1[C@@H](c2ccc(-c3ccccc3COC3CCOCC3)cc2)CCC[C@H]1C(=O)Nc1ccc(C(F)(F)F)cc1F [Example 19, (1R,2R,6S)-2-((2-fluoro-4-(trifluoromethyl)phenyl)carbamoyl)-6-(2′-(((tetrahydro-2H-pyran-4-yl)oxy)methyl)-[1,1′-biphenyl]-4-yl) cyclohexane-1-carboxylic acid] | 316 nM
CCN[C@@H]1CC[C@@H](C(=O)Nc2ccc(C(C)C)cc2)[C@H](C(=O)O)[C@H]1c1ccc(N(C)S(=O)(=O)c2ccc3c(c2)nc(C)n3C)cc1 (racemic) [Example 249, rac-(1R,2S,3R,6R)-3-(ethylamino)-6-((4-isopropylphenyl)carbamoyl)-2-(4-((N,1,2-trimethyl-1H-benzo[d]imidazole)-5-sulfonamido)phenyl)cyclohexane-1-carboxylic acid] | 1.58 nM
COC(=O)N1CCc2c(cnnc2-c2ccc([C@H]3CCC[C@@H](C(=O)Nc4ccc(C(F)(F)F)cc4F)[C@@H]3C(=O)O)cc2)C1 [Example 40, (1R,2R,6S)-2-((2-fluoro-4-(trifluoromethyl)phenyl)carbamoyl)-6-(4-(6-(methoxycarbonyl)-5,6,7,8-tetrahydropyrido[3,4-d]pyridazin-1-yl)phenyl)cyclohexane-1-carboxylic acid] | 10000 nM
Cc1nc2cc(S(=O)(=O)N(C)c3ccc([C@H]4C[C@@H]5COC[C@@H]5[C@@H](C(=O)Nc5ccc(C(F)(F)F)cc5F)[C@@H]4C(=O)O)cc3)ccc2n1C (stereo in doubt) [Example 393, rel-(3aR,4S,5S,6R,7aR)-4-((2-fluoro-4-(trifluoromethyl)phenyl)carbamoyl)-6-(4-((N,1,2-trimethyl-1H-benzo[d]imidazole)-5-sulfonamido)phenyl)octahydroisobenzofuran-5-carboxylic acid] | 251 nM
O=C(Nc1ccc(C(F)(F)F)cc1)[C@@H]1CCC[C@H](c2ccc(Br)cc2)[C@@]1(F)C(=O)O (racemic) [Example 243, rac-(1R,2S,6R)-2-(4-bromophenyl)-1-fluoro-6-((4-(trifluoromethyl)phenyl)carbamoyl)cyclohexane-1-carboxylic acid] | 5010 nM
C#CC(=O)N(C)c1ccc([C@H]2CCC[C@@H](C(=O)Nc3ccc(C(F)(F)F)cc3F)[C@@H]2C(=O)O)cc1 [Example 229, (1R,2R,6S)-2-((2-fluoro-4-(trifluoromethyl)phenyl)carbamoyl)-6-(4-(N-methylpropiolamido)phenyl)cyclohexane-1-carboxylic acid] | 316 nM
Cc1nc2cc(S(=O)(=O)N(C)c3ccc([C@H]4CCC[C@@H](C(=O)NC56CC(C(F)F)(C5)C6)[C@@H]4C(=O)O)cc3)ccc2n1C [Example 186, (1R,2R,6S)-2-((3-(difluoromethyl)bicyclo[1.1.1]pentan-1-yl)carbamoyl)-6-(4-((N,1,2-trimethyl-1H-benzo[d]imidazole)-5-sulfonamido)phenyl)cyclohexane-1-carboxylic acid, formic acid salt] | 3160 nM

From patent publication US12662451B2, “Chemical compounds and uses thereof” (GLAXOSMITHKLINE INTELLECTUAL PROPERTY (NO.4) LIMITED, priority 2023, dated 2026)
